Test results published in patent US12692249B2, “WDR5 inhibitors and modulators” (Vanderbilt University, priority 2019, dated 2026).

Assays:
WDR5 = WDR5 (Homo sapiens, UniProt P61964); test: TR-FRET competition binding assay, displacement of 10mer-Thr-FAM MLL peptide probe from His-tagged WDR5; settings: WDR5-His tag (residues 24-334) 2 nM; 10mer-Thr-FAM 150 nM; 60 min, room temperature; read-out: Ki for Inhibition of WDR5 by TR-FRET assay
Description: Time Resolved-Fluorescence Energy Transfer Competition Assay […] Excess 10mer-Thr-FAM probe was utilized with His-tagged WDR5 in conjunction with a commercial anti-His antibody containing a Terbium label. The LanthaScreenTM Elite Tb-anti-HIS Antibody from ThermoFisher Scientific was used for this purpose. […] The 10mer-Thr-FAM probe when bound to WDR5 will undergo a FRET interaction with the Tb-anti-HIS and emit at 520 nm. […] WDR[…] 10[…] used at 150 nM. […] A source plate is prepared using an Echo Liquid Handler, which distributes the compounds to the assay plate (white, flat-bottom; OptiPlate) in a 10-point, 5-fold dilution schemes with a top concentration of 5 μM, in a final volume of 20 μL. […] The final DMSO concentration in each well of the assay plate is 1% or lower. The plate is covered, shielded from light, and incubated for 60 minutes at room temperature with rocking. 10mer-Thr-FAM and Anti-His terbium antibody fluorescence is then measured on a Biotek Cytation 3 at excitation wavelength of 340 nm, and emission wavelengths of 495 nm and 520 nm. […] TR-FRET signal is plotted and IC50 and Ki values are calculated according to the formula of Wang Z. FEBS Lett (1996) 3, 245. Ki=[I]50/([L]50/Kd+[P]0/Kd+1) where [I]50 is the concentration of the free inhibitor at 50% inhibition, [L]50 is the concentration of the free labeled ligand at 50% inhibition, [P]0 is the concentration of the free protein at 0% inhibition, Kd represents the dissociation constant of the FITC-MLL or 10mer-Thr-FAM probe for WDR5. Total fluorescence is also measured, to rule out compounds that are inherently fluorescent or able to act as quenchers in the assay. TR-FRET Binding Assay

[1] = test system: MV4:11 human cancer cell lines; test: Cellular viability / anti-proliferative assay, CellTiter-Glo, 5 day protocol; assay type: cell-based; settings: Homo sapiens, MV4-11, 120 h, MV4:11 cells; 5 day incubation; CellTiter-Glo; mean of at least two replicates; read-out: GI50 on cellular proliferation of MV4:11 human cancer cell lines
Method in brief: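 Luminescent ATP-based viability (CellTiter-Glo) after a 5-day exposure gave GI50 via sigmoidal fitting, averaged over two or more replicates. Compounds spanned 22 two-fold steps down from 30 μM at 0.3% DMSO, on 200 MV-4-11 cells per well grown in IMDM plus 10% FBS.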

Structure (SMILES): COc1cnc2cccc(N3CCc4c(cc(Cn5ccnc5C)cc4-c4cn(C)nc4C(F)(F)F)C3=O)c2c1 [Example 3, 2-(3-Methoxyquinolin-5-yl)-7-((2-methyl-1H-imidazol-1-yl)methyl)-5-(1-methyl-3-(trifluoromethyl)-1H-pyrazol-4-yl)-3,4-dihydroisoquinolin-1(2H)-one]
- Ki (WDR5): < 0.02 nM
- GI50 [1]: 20 nM

Structure (SMILES): CCc1cc(C(=O)NCCNC(=O)c2cnccn2)c2nccc(N3CCc4c(cc(Cn5ccnc5)cc4-c4cn(C)nc4C(F)(F)F)C3=O)c2c1 [Example 209, 4-(7-((1H-Imidazol-1-yl)methyl)-5-(1-methyl-3-(trifluoromethyl)-1H-pyrazol-4-yl)-1-oxo-3,4-dihydroisoquinolin-2(1H)-yl)-6-ethyl-N-(2-(pyrazine-2-carboxamido)ethyl)quinoline-8-carboxamide]
- Ki (WDR5): < 0.02 nM
- GI50 [1]: < 20 nM

Structure (SMILES): COc1cc(N2CCN(C)CC2)c2cncc(N3CCc4c(cc(Cn5ccnc5)cc4-c4cn(C)nc4C(F)(F)F)C3=O)c2c1 [Example 123, 7-((1H-Imidazol-1-yl)methyl)-6′-methoxy-5-(1-methyl-3-(trifluoromethyl)-1H-pyrazol-4-yl)-8′-(4-methylpiperazin-1-yl)-3,4-dihydro-1H-[2,4′-biisoquinolin]-1-one]
- Ki (WDR5): 0.04 nM
- GI50 [1]: < 20 nM

Structure (SMILES): COc1ccc2cncc(N3CCc4c(cc(Cn5ccnc5)cc4-c4cn(C)nc4C(F)(F)F)C3=O)c2c1 [Example 87, 7-((1H-imidazol-1-yl)methyl)-6′-methoxy-5-(1-methyl-3-(trifluoromethyl)-1H-pyrazol-4-yl)-3,4-dihydro-1H-[2,4′-biisoquinolin]-1-one]
- Ki (WDR5): 0.027 nM
- GI50 [1]: < 20 nM

Structure (SMILES): COc1ccc2nc(C)cc(N3CCc4c(cc(Cn5ccnc5N)cc4-c4cn(C)nc4C(F)(F)F)C3=O)c2c1 [Example 121, 7-((2-Amino-1H-imidazol-1-yl)methyl)-2-(6-methoxy-2-methylquinolin-4-yl)-5-(1-methyl-3-(trifluoromethyl)-1-1H-pyrazol-4-yl)-3,4-dihydroisoquinolin-1(2H)-one]
- Ki (WDR5): 0.023 nM
- GI50 [1]: < 20 nM

Structure (SMILES): CCc1cc(N2CCN(C)CC2)c2nc(C)cc(N3CCc4c(cc(Cn5ccnc5)cc4-c4cn(C)nc4C(F)(F)F)C3=O)c2c1 [Example 110, 7-((1H-imidazol-1-yl)methyl)-2-(6-ethyl-2-methyl-8-(4-methylpiperazin-1-yl)quinolin-4-yl)-5-(1-methyl-3-(trifluoromethyl)-1H-pyrazol-4-yl)-3,4-dihydroisoquinolin-1(2H)-one]
- Ki (WDR5): 0.021 nM
- GI50 [1]: < 20 nM

Structure (SMILES): Cc1nccn1Cc1cc2c(c(-c3cn(C)nc3C(F)(F)F)c1)CCN(c1ccnc3cc(Cl)ccc13)C2=O [Example 2, 2-(7-Chloroquinolin-4-yl)-7-((2-methyl-1H-imidazol-1-yl)methyl)-5-(1-methyl-3-(trifluoromethyl)-1H-pyrazol-4-yl)-3,4-dihydroisoquinolin-1(2H)-one]
- Ki (WDR5): 0.05 nM
- GI50 [1]: 189 nM

Structure (SMILES): COCc1cc(OC)cc2c(N3CCc4c(cc(Cn5ccnc5)cc4-c4cn(C)nc4C(F)(F)F)C3=O)ccnc12 [Example 136, 7-((1H-Imidazol-1-yl)methyl)-2-(6-methoxy-8-(methoxymethyl)quinolin-4-yl)-5-(1-methyl-3-(trifluoromethyl)-1H-pyrazol-4-yl)-3,4-dihydroisoquinolin-1(2H)-one]
- Ki (WDR5): < 0.02 nM
- GI50 [1]: < 20 nM

Structure (SMILES): CCc1cc(C#N)c2nccc(N3CCc4c(cc(Cn5ccnc5)cc4-c4cn(C)nc4C(F)(F)F)C3=O)c2c1 [Example 204, 4-(7-((1H-Imidazol-1-yl)methyl)-5-(1-methyl-3-(trifluoromethyl)-1H-pyrazol-4-yl)-1-oxo-3,4-dihydroisoquinolin-2(1H)-yl)-6-ethylquinoline-8-carbonitrile]
- Ki (WDR5): < 0.02 nM
- GI50 [1]: 22 nM

Structure (SMILES): COc1cnc2cccc(N3CCc4c(cc(Cn5ccnc5)cc4-c4cn(C)nc4C(F)(F)F)C3=O)c2c1 [Example 12, 7-((1H-Imidazol-1-yl)methyl)-2-(3-methoxyquinolin-5-yl)-5-(1-methyl-3-(trifluoromethyl)-1H-pyrazol-4-yl)-3,4-dihydroisoquinolin-1(2H)-one]
- Ki (WDR5): < 0.02 nM
- GI50 [1]: 34 nM
